One experiment deals with T1, AuroraA-TPX2 (Homo sapiens, UniProt O14965).
T1 construct: 20 µL of AuroraA-TPX2 KD GST; GST
T1 sequence (O14965 133-383 limits assumed): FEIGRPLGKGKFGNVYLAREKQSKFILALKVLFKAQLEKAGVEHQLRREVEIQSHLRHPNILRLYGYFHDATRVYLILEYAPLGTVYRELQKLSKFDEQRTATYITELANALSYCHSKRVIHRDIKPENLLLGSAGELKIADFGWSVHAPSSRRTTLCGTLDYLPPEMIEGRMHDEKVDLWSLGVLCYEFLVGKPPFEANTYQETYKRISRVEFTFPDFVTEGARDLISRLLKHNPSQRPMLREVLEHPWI
T1 sequence (Q9ULW0 1-43 partner limits assumed): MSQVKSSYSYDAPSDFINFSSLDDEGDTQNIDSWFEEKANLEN
The experiment in a line: AuroraA-TPX2 Homogeneous Time Resolved Fluorescent (HTRF) kinase assay. The settings on record: average, read-out: AurA/TP X2_ IC50_IP (Avg). The format is biochemical. The procedure, abridged:
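Aurora-A/TPX2 phosphorylates biotinylated PLK peptide (about 1 µM) with ATP for about 120 min in 60 mM HEPES pH 7.5, 10 mM MgCl2, 2 mM DTT. EDTA quench, overnight equilibration with Eu-anti-phosphoPLK antibody and SA-APC; HTRF read at 615/655 nm after 320 nm excitation.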
(In general: Time-resolved FRET reads energy transfer from a long-lived donor to a nearby acceptor.)

In another experiment the target is T2, AuroraB (Homo sapiens, UniProt Q96GD4).
T2 construct: 20 µL of AuroraB FL His; His
T2 sequence (Q96GD4 whole entry): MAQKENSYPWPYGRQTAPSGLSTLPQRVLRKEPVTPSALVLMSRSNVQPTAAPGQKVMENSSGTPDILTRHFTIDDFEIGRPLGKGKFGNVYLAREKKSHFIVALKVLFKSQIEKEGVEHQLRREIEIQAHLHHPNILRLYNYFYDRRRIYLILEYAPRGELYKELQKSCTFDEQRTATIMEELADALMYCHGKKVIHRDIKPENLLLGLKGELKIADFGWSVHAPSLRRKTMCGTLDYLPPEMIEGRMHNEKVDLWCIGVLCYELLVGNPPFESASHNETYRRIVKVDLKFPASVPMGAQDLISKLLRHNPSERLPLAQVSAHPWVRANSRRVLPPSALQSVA
The experiment in a line: AuroraB Homogeneous Time Resolved Fluorescent (HTRF) kinase assay. The conditions noted are these: average, read-out: AurB_ _IC50_IP (Avg). The format is biochemical. The method, boiled down: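 Full-length His-tagged AuroraB (400 pM) phosphorylates 0.1 µM biotinylated Histone H3 with 23 µM ATP (Km(app)) in HEPES pH 7.5 with Mg/Mn, about 90 min. EDTA-quenched; Eu-anti-phosphoHistoneH3 and SA-APC HTRF, 655/615 nm ratio as phosphorylation.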

The test system of experiment [1] is phosphorylation of Histone H3. Description: HeLa cell 1-hour phospho-histone assay. In kind it is cell-based. The settings on record: Homo sapiens, HeLa, 1 h, HeLa cells, 1 hour, average, read-out: pHH3 EC50_IP (Avg). The procedure, abridged: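 HeLa cells were exposed to serially diluted compounds for 1 hour at 37 °C (0.5% DMSO final), then fixed, permeabilized and immunostained for phospho-histone H3 (Ser10) with Hoechst counterstain. High-content imaging scored the percentage of pHH3-positive cells.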

[2] abbreviates: given as numbers, unit inferred.

The values below come from patent EP1984353B1, “AURORA KINASE MODULATORS AND METHOD OF USE” (Amgen, Inc, priority 2006, dated 2007).

Structures are written as SMILES. Where two headings read alike, the source gives them in different places.

On to `Cc1csc(-c2nnc(Nc3ccc(Oc4ncccc4-c4c[nH]nc4N)cc3)c3ccccc23)c1` [compound 307, N-(4-((3-(3-amino-1H-pyrazol-4-yl)-2-pyridinyl)oxy)phenyl)-4-(4-methyl-2-thienyl)-1-phthalazinamine], for which the IC50 on AuroraA-TPX2 (given as class symbols) and at AuroraB (given as class symbols) was at most 100 nM in each case. In experiment [1] (given as class symbols), the EC50 lay within 100 to 500 nM.
For the compound `Nc1nccc(-c2cccnc2Oc2ccc(Nc3nnc(-c4ccc(CO)cc4)c4ccccc34)cc2)n1` [compound 249, (4-(4-((4-((3-(2-amino-4-pyrimidinyl)-2-pyridinyl)oxy)phenyl)amino)-1-phthalazinyl)phenyl)methanol], the IC50 on AuroraA-TPX2 (given as class symbols) and on AuroraB (given as class symbols) was at most 100 nM throughout. Also, the EC50 in experiment [1] (given as class symbols) lay within 100 to 500 nM.
For the compound `Cc1csc(-c2cnc(Nc3ccc(Oc4ncccc4-c4ccnc(N)n4)cc3)c3ccccc23)c1` [compound 262, N-(4-((3-(2-amino-4-pyrimidinyl)-2-pyridinyl)oxy)phenyl)-4-(4-methyl-2-thienyl)-1-isoquinolinamine], the figures for the IC50 at AuroraA-TPX2 (setting [2]) and on AuroraB (setting [2]) were 34.8 nM and 15.8 nM, respectively. Besides, the EC50 in experiment [1] (setting [2]) was 334 nM.
Take `Nc1nccc(-c2cccnc2Oc2ccc(Nc3nnc(-c4ccccc4)cc3C(=O)O)cc2)n1` [compound 433, 3-((4-((3-(2-amino-4-pyrimidinyl)-2-pyridinyl)oxy)phenyl)amino)-6-phenyl-4-pyridazinecarboxylic acid]: the IC50 on AuroraA-TPX2 (given as class symbols) and at AuroraB (given as class symbols) was 500 to 2500 nM throughout. The EC50 in experiment [1] (given as class symbols) lay in the range of 500 to 2500 nM.
As to `Nc1n[nH]cc1-c1cccnc1Oc1ccc(Nc2nnc(-c3cccc(CO)c3)c3ccccc23)cc1` [compound 305, (3-(4-((4-((3-(3-amino-1H-pyrazol-4-yl)-2-pyridinyl)oxy)phenyl)amino)-1-phthalazinyl)phenyl)methanol], the IC50 on AuroraA-TPX2 (given as class symbols) and on AuroraB (given as class symbols) was at most 100 nM in each case. Further, the EC50 in experiment [1] (given as class symbols) was 500 to 2500 nM.
Regarding `Cc1csc(-c2nnc(Nc3ccc(Oc4ncccc4-c4ccnc(N)c4)cc3)c3ccccc23)n1` [compound 345, 2-((4-((4-(4-methyl-1,3-thiazol-2-yl)-1-phthalazinyl)amino)phenyl)oxy)-3,4'-bipyridin-2'-amine], the IC50 at AuroraA-TPX2 (given as class symbols) and on AuroraB (given as class symbols) was at most 100 nM each time. Also, in experiment [1] (given as class symbols), the EC50 lay in the range of 100 to 500 nM.
Regarding `Nc1nccc(-c2cccnc2Oc2ccc(Nc3nnc(N4CCCC(F)C4)c4ccccc34)cc2)n1` (stereo not drawn) [compound 278, N-(4-((3-(2-amino-4-pyrimidinyl)-2-pyridinyl)oxy)phenyl)-4-(3-fluoro-1-piperidinyl)-1-phthalazinamine], the values for the IC50 on AuroraA-TPX2 (setting [2]) and at AuroraB (setting [2]) were 29.9 nM and 7.4 nM, respectively. In experiment [1] (setting [2]), the EC50 is 282 nM.
In the case of `Cc1ccc(-c2nnc(Nc3ccc(Oc4ncccc4-c4c[nH]nc4N)cc3)c3ccccc23)cc1` [compound 301, N-(4-((3-(3-amino-1H-pyrazol-4-yl)-2-pyridinyl)oxy)phenyl)-4-(4-methylphenyl)-1-phthalazinamine], the IC50 on AuroraA-TPX2 (setting [2]) was 5.5 nM; on AuroraB (setting [2]) it was 3.1 nM. Besides, the EC50 in experiment [1] (setting [2]) came out at 166 nM.
In the case of `CCN(CCO)CCCCNc1nccc(-c2cccnc2Oc2ccc(Nc3nnc(-c4ccccc4)cc3C)cc2)n1` [compound 348, 2-(ethyl(4-((4-(2-((4-((4-methyl-6-phenyl-3-pyridazinyl)amino)phenyl)oxy)-3-pyridinyl)-2-pyrimidinyl)amino)butyl)amino)ethanol], the IC50 at AuroraA-TPX2 (given as class symbols) and on AuroraB (given as class symbols) was at most 100 nM throughout. For the same compound, in experiment [1] (given as class symbols), the EC50 was in the range of 100 to 500 nM.
Turning to `Cc1cc(-c2ccccc2)nnc1Nc1ccc(Oc2ncccc2-c2c[nH]nc2N)cc1` [compound 302, N-(4-((3-(3-amino-1H-pyrazol-4-yl)-2-pyridinyl)oxy)phenyl)-4-methyl-6-phenyl-3-pyridazinamine], the IC50 at AuroraA-TPX2 (given as class symbols) and on AuroraB (given as class symbols) was at most 100 nM in each case. Moreover, the EC50 in experiment [1] (given as class symbols) is 500 to 2500 nM.
Take `CN(C)Cc1ccc(-c2nnc(Nc3ccc(Oc4ncccc4-c4ccnc(N)n4)cc3)c3ccccc23)cc1` [compound 336, N-(4-((3-(2-amino-4-pyrimidinyl)-2-pyridinyl)oxy)phenyl)-4-(4-((dimethylamino)methyl)phenyl)-1-phthalazinamine]: the IC50 at AuroraA-TPX2 (given as class symbols) was in the range of 500 to 2500 nM; on AuroraB (given as class symbols), 100 to 500 nM. The EC50 in experiment [1] (given as class symbols) was in the range of 500 to 2500 nM.
On to `CN1CCN(CCCNc2nccc(-c3cccnc3Oc3ccc(Nc4nnc(-c5ccccc5)c5ccccc45)cc3)n2)CC1` [compound 333, N-(4-((3-(2-((3-(4-methyl-1-piperazinyl)propyl)amino)-4-pyrimidinyl)-2-pyridinyl)oxy)phenyl)-4-phenyl-1-phthalazinamine], for which the IC50 on AuroraA-TPX2 (given as class symbols) and at AuroraB (given as class symbols) was at most 100 nM throughout. Besides, the EC50 in experiment [1] (given as class symbols) was at most 100 nM.
Consider `CN(C)CCCCNc1nccc(-c2cccnc2Oc2ccc(Nc3nnc(-c4ccccc4)c4ccccc34)cc2)n1` [compound 338, N,N-dimethyl-N'-(4-(2-((4-((4-phenyl-1-phthalazinyl)amino)phenyl)oxy)-3-pyridinyl)-2-pyrimidinyl)-1,4-butanediamine], for which the IC50 on AuroraA-TPX2 (given as class symbols) and on AuroraB (given as class symbols) was at most 100 nM each time. For the same compound, the EC50 in experiment [1] (given as class symbols) was at most 100 nM.
On to `Nc1n[nH]cc1-c1cccnc1Oc1ccc(Nc2nnc(Cc3ccccc3)c3ccccc23)cc1` [compound 303, N-(4-((3-(3-amino-1H-pyrazol-4-yl)-2-pyridinyl)oxy)phenyl)-4-(phenylmethyl)-1-phthalazinamine], for which the IC50 at AuroraA-TPX2 (setting [2]) turned out to be 3.2 nM; on AuroraB (setting [2]) it was 16.6 nM. In addition, the EC50 in experiment [1] (setting [2]) is 729 nM.
On the same counts, the results for `Cc1csc(-c2nnc(Nc3ccc(Oc4ncccc4-c4ccnc(N)n4)cc3)c(C)c2C)c1` [compound 259, N-(4-((3-(2-amino-4-pyrimidinyl)-2-pyridinyl)oxy)phenyl)-4,5-dimethyl-6-(4-methyl-2-thienyl)-3-pyridazinamine] are 5.9 nM, 2.8 nM and 41.7 nM.
Consider `Cc1n[nH]cc1-c1cccnc1Oc1ccc(Nc2nnc(-c3ccccc3)c3ccccc23)cc1` [compound 300, N-(4-((3-(3-methyl-1H-pyrazol-4-yl)-2-pyridinyl)oxy)phenyl)-4-phenyl-1-phthalazinamine], for which the IC50 on AuroraA-TPX2 (given as class symbols) and on AuroraB (given as class symbols) was 100 to 500 nM in each case. Moreover, the EC50 in experiment [1] (given as class symbols) is 100 to 500 nM.
Consider `c1ccc(-c2nnc(Nc3ccc(Oc4nccnc4-c4ccncc4)cc3)c3ccccc23)cc1` [compound 261, 4-phenyl-N-(4-((3-(4-pyridinyl)-2-pyrazinyl)oxy)phenyl)-1-phthalazinamine], for which the IC50 at AuroraA-TPX2 (given as class symbols) and at AuroraB (given as class symbols) was 100 to 500 nM each time. Also, in experiment [1] (given as class symbols), the EC50 is 500 to 2500 nM.
Take `OCCN(CCO)CCCNc1nccc(-c2cccnc2Oc2ccc(Nc3nnc(-c4ccccc4)c4ccccc34)cc2)n1` [compound 341, 2,2'-((3-((4-(2-((4-((4-phenyl-1-phthalazinyl)amino)phenyl)oxy)-3-pyridinyl)-2-pyrimidinyl)amino)propyl)imino)diethanol]: the IC50 at AuroraA-TPX2 (given as class symbols) was 100 to 500 nM; at AuroraB (given as class symbols), at most 100 nM. For the same compound, in experiment [1] (given as class symbols), the EC50 lay within 100 to 500 nM.
On to `Cc1cc(-c2ccccc2)nnc1Nc1ccc(Oc2ncccc2-c2ccnc(NCCCN3CCCCC3)n2)cc1` [compound 424, 4-methyl-6-phenyl-N-(4-((3-(2-((3-(1-piperidinyl)propyl)amino)-4-pyrimidinyl)-2-pyridinyl)oxy)phenyl)-3-pyridazinamine], for which the IC50 at AuroraA-TPX2 (given as class symbols) and on AuroraB (given as class symbols) was at most 100 nM each time. Besides, the EC50 in experiment [1] (given as class symbols) is 100 to 500 nM.
